Data on six molecules can be found in patent US9897607B2, “Methods, kits, and systems for treatment of metastatic papillary thyroid cancer” (The Governors of the University of Alberta, priority 2012, dated 2018).

Series [1] has as its system PDGFR-α/β, MAPK/ERK and PI3K/Akt pathways in TPC-1 cells. Description: Western blot of PDGFR activation and MAPK/ERK, PI3K/Akt signalling, TPC-1. The class given is cell-based, human. The method, then:
(§1) Primary cell culture and experimental cell lines were maintained in RPMI 1640 media supplemented with 10% FBS. The cells were seeded in a 100-mm culture dish and were grown in a humidified 5% CO2 incubator. For PDGF-BB stimulation (25 ng/ml), cells were grown to about 80% confluence and incubated in serum-free medium overnight prior to each experiment. MAPK/ERK inhibitors U0126 and PD98059 were purchased from Calbiochem (Toronto, Ontario, Canada). PI3K/Akt inhibitor ly294002 was purchased from Cell Signaling Technology (Danvers, Mass., USA). Cells that were treated with inhibitors were given varying concentrations: U0126; 2 umol/L and 10 umol/L; Ly294002 10 umol/L and 25 umol/L; Sunitinib 0.25 umol/L. In all cases, unless otherwise indicated the inhibitors were given to cells and 60 minutes later the PDGF-BB was added to the cultures followed by Western blot analysis.
(§2) Cells were lysed in RIPA buffer [150 mM NaCl, 100 mM Tris (pH 8.0), 1% Triton X-100, 1% deoxycholic acid, 0.1% SDS, 5 mM EDTA, and 10 mM NaF] supplemented with 1 mM sodium vanadate, 2 mM leupeptin, 2 mM aprotinin, 1 mM phenylmethylsulfonyl fluoride (PMSF), 1 mM DTT, 2 mM pepstatin, and 1:100 protease inhibitor cocktail set III on ice. After centrifugation at 4° C. at 18,000 rpf for 15 min, the supernatant was harvested as the total cellular protein extracts and stored at −80° C. The protein concentration was determined using Bio-Rad protein assay reagent (Richmond, Va., USA). Running samples were prepared by adding a sample reducing agent and SDS sample buffer, incubating at 98° C. for 5 min. Aliquots of protein extract samples were separated by SDS-polyacrylamide gel electrophoresis (SDS-PAGE) and transferred to nitrocellulose membrane. Membranes were blocked with 5% nonfat dry milk in 1×TBS containing 0.05% Tween-20 for 60 min, followed by incubation with primary antibodies 4° C. overnight. Protein bands were detected by incubation with horseradish peroxidase-conjugated antibodies (Pierce Biotechnology, Rockford, Ill., USA) and visualized with SuperSignal West Pico chemiluminescence substrate (Thermo Scientific, Rockford, Ill., USA).
On the technique in general: A western blot detects proteins with antibodies after separation by electrophoresis.

For series [2], the system named is TPC-1, 8305C and BCPAP cell lines. Kind of series: Cell growth of PTC cell lines with sunitinib (FIG. 6). The class given is cell-based, human. The note with it: all of the cell lines; absence of PDGF-BB stimulation.
The subject of the next series is 8305C cell line. Description: Cytoselect cell invasion assay, 8305C. The series is classed as cell-based, human. The method, then:
(§3) As previously described, Cytoselect™ 96-well cell invasion assay kit was used (Cell Biolabs, San Diego, Calif., USA) to assess cell invasiveness according to the manufacturer's protocol.^46 Briefly, TPC-1, BCPAP and 8305C after transfected with either PDGFRα siRNA or scramble siRNA, 10000 cells were starved overnight and added to the inserts, PDGF-BB was added to some wells at the concentration of 25 ng/mL, PDGF-BB was added 1 h later for inhibitors, sunitinib (0.2 umol/L), Ly294002 (10 umol/L) and (U0126) 2 umol/L, cells were seeded into the insert plate for 16 hours, the invasive cells passed through basement membrane layer to the bottom and dissociated from membrane by the addition of cells detachment buffer, the invasive cells were lysed and followed by quantification using CyQuant GR fluorescent Dye. For cell viability analysis 10000 cells were seeded per well and cultured for 16 hours. MTS assay (Promega, Madison, USA) was then performed in 4 replicates followed manufacturer's instructions. PTC cell lines transfected with PDGFR specific siRNA or scrambled control were plated at a density of 10,000 or 20,000/ml and cultured for 5 days. Cell counts were done on days 2, 3 and 5 using trypan blue (Sigma-Aldrich, Oakville, Canada) and results expressed as total number of viable cells. MTS assay was done in 7 replicates as per manufacturer's instructions. The absorbance was recorded by a BioRad spectrophotometer at day 5 of cell culture.

The next series concerns thyroid cancer. The note with it: thyroid cancer trials; cited from earlier work.
Series [3] relates to PDGFR-α/β, MAPK/ERK and PI3K/Akt pathways in 8305C cells. Description: Western blot of PDGFR activation and MAPK/ERK, PI3K/Akt signalling, 8305C. The class given is cell-based, human. As for the experimental part:
as §1, §2

Series [4] relates to TPC-1 cell line. Description: Cytoselect cell invasion assay, TPC-1. The series is classed as cell-based, human. The method, then: as §3
The test system of series [5] is PDGFR-α (phospho-PDGFR), PI3K/Akt and MAPK/ERK pathways. Kind of series: Western blot of primary cell culture from metastatic papillary thyroid cancer lymph node, PDGF-BB stimulation. The class given is cell-based, human. As for the experimental part:
as §1, §2

The test system of the next series is BCPAP cell line. Description: Cytoselect cell invasion assay, BCPAP. The series is classed as cell-based, human. The method, then:
as §3, with “MTS assay was done in 7 replicates as per manufacturer's instructions.” left out

In series [6] the test system is TPC-1 cell line. Description: Cell viability (MTS assay), TPC-1. The series is classed as cell-based, human. The following applies: small molecule inhibitors Ly294002, U0126, 16 hours. The method, then: as §3, with “MTS assay was done in 7 replicates as per manufacturer's instructions.” left out
In general terms: Tetrazolium dyes change colour on reduction, which living cells bring about.

The test system of a further series is TPC-1-derived cell lines. Kind of series: Mice xenograft model with shRNA TPC-1-derived cell lines. The class given is in vivo. The note with it: mice inoculated with cell lines in Matrigel; 20 days after inoculation; versus other groups. The method, then:
To selectively and stably silence the expression of the PDGFR-alpha and-beta receptors in the TPC-1, BCPAP and 8305C cell lines we used the HuSH-29 shRNA Vector system (HuSH-29 shRNA Retroviral Vector Systems; OriGene Technologies, Inc.). Briefly, to silence the expression of the PDGFR-alpha receptor PTC cells were transduced with the pRS shRNA retrovirus system (Puro+) followed by selection in puromycin (2.5 ug/mL). Resistant cells were assessed by western blot to select the sequences that produced the higest levels of protein expression knock-down. The sequences used for these studies were […] (SEQ ID NO: 1) for the TPC-1 cell line and […] (SEQ ID NO: 2) for the 8305C cell line. To selectively knock down the PDGFR-beta receptor were transduced with the pGFP-BR-S shRNA retrovirus system (BSD+) followed by selection in blasticidin (500 ug/mL). Resistant cells were again assessed by western blot to select the sequences that produced the higest levels of protein expression knock-down. […]
The experiments of FIG. 13 depict knock down of PDGFR-alpha or -beta subunit results in opposing effects in tumour formation on a mice xenograft model. […] The average tumour volume (top panel) and tumour weight (bottom panel) was much higher for mice given cell lines expressing only PDGFR-alpha and statistical significance between groups were calculated 20 days after inoculation.

A further series relates to KTC-1 cell line. Kind of series: Cytoselect cell invasion assay, KTC-1. The class given is cell-based, human. The note with it: KTC-1 (neither subunit); also increasing levels or longer stimulation.
Setting [7] is: primary culture, PDGF-BB 25 ng/ml.

“Also recorded” adds a separate entry of the source.

As to `CCN(CC)CCNC(=O)c1c(C)[nH]c(/C=C2\C(=O)Nc3ccc(F)cc32)c1C` [sunitinib, Sunitinib malate], the “activation of PDGFR-α/β (phospho-PDGFR)” value in [1] (TPC-1, sunitinib 0.25 umol/L, PDGF-BB 25 ng/ml 60 minutes later) is given as “completely disrupts PDGFR activation; also recorded: completely blocks activation of PDGFR-α/β”; in series [3] (8305C, sunitinib 0.25 umol/L, PDGF-BB 25 ng/ml 60 minutes later) it was “completely disrupts PDGFR activation; also recorded: completely blocks activation of PDGFR-α/β”. For the same molecule, the “activity in PI3K/Akt and MAPK/ERK pathways” value is “significant decreased activity” in series [1] (TPC-1, sunitinib 0.25 umol/L, PDGF-BB stimulated) and “significant decreased activity” in series [3] (8305C, sunitinib 0.25 umol/L, PDGF-BB stimulated). In series [2], the “effect on cell growth” value was “not significant”. For the same molecule, the “change in invasive potential with PDGF-BB stimulation” value in the series with 8305C cell line (8305C, sunitinib 0.2 umol/L, PDGF-BB 25 ng/mL added 1 h later, 16 hours) was “virtually completely abates any change in invasive potential; also recorded: abated any change in invasive potential”; in the series on TPC-1 cell line [4] (TPC-1, sunitinib 0.2 umol/L, PDGF-BB 25 ng/mL added 1 h later, 16 hours), “virtually completely abates any change in invasive potential; also recorded: abated any change in invasive potential”. Moreover, the “invasive potential without PDGF-BB stimulation” value in the series on 8305C cell line (8305C, sunitinib 0.2 umol/L, no PDGF-BB) was “does not alter invasive potential”; in the series with TPC-1 cell line [4] (TPC-1, sunitinib 0.2 umol/L, no PDGF-BB) it was “does not alter invasive potential”; with BCPAP cell line (BCPAP, sunitinib 0.2 umol/L, no PDGF-BB), “does not alter invasive potential”. The outcomes in the series on thyroid cancer was “favourable outcomes”. Moreover, the side-effect profiles result in the series with thyroid cancer was “acceptable side-effect profiles”. The “activation of PDGFR (phospho-PDGFR) and downstream PI3K/Akt and MAPK/ERK pathways by PDGF-BB” value in series [5] (sunitinib 0.25 umol/L given 60 minutes before PDGF-BB 25 ng/ml, semi-quantitative Western blot) is “can be blocked; also recorded: completed blocked”.
`O=c1cc(N2CCOCC2)oc2c(-c3ccccc3)cccc12` [Ly294002]: in the series with TPC-1 cell line [6], the cell viability result is “not significantly altered”.
Take `N#CC(=C(/N)Sc1ccccc1N)/C(C#N)=C(\N)Sc1ccccc1N` [U0126]: the cell viability entry in the series with TPC-1 cell line [6] is given as “not significantly altered”. For the same molecule, the “MAPK/ERK pathway blockade (Western blot)” value in [1] (PDGF-BB stimulated TPC-1 cells, U0126 2 umol/L and 10 umol/L) was “decreased protein expression; also recorded: nearly complete”. The “PDGF-BB mediated increases in invasive potential” value in the series with TPC-1 cell line [4] (TPC-1, U0126 2 umol/L (MAPK/ERK blockade), PDGF-BB 25 ng/mL 1 h later, 16 hours) is on record as “sufficient to abrogate increases in invasive potential; also recorded: prevents PDGF-BB mediated increases in invasive potential”.
As for `CNC(=O)c1cc(Oc2ccc(NC(=O)Nc3ccc(Cl)c(C(F)(F)F)c3)cc2)ccn1` [Sorafenib, sorafenib], in the series on thyroid cancer, the outcomes was “favourable outcomes” and the side-effect profiles entry is listed as “acceptable side-effect profiles”.
On to “TGCCTCCGACGAGATCTATGAGATCATGC (SEQ ID NO: 3) (listed as Homo sapiens) [sh PDGFR-beta, shRNA (pGFP-BR-S retrovirus system) knocking down PDGFR-beta in TPC-1; cells then express only PDGFR-alpha]”, for which, in the series with TPC-1-derived cell lines, the average tumour volume result is “much higher” and the tumour weight result is reported as “much higher”.
“PDGF-BB: PDGFR ligand known to bind all subunits of PDGFR, purchased from GIBCO”: the “phospho-PDGFR-α/β, phospho-Akt, and phospho-ERK” value in series [1] (TPC-1, PDGF-BB 25 ng/ml) is given as “strong up-regulation”. In [1] (TPC-1, PDGF-BB stimulation), the “time of return of levels to baseline” value is about 60 min; the “time to increases in phospho-PDGFR-α/β, phospho-Akt and phospho-ERK” value is at most 5 min; the “time to maximal activation of both pathways” value was at most 15 min. Further, in the series with KTC-1 cell line, the “invasive potential on PDGF-BB stimulation” value is given as “did not exhibit any change in invasive potential”. For the same molecule, the “invasive potential on PDGF-BB stimulation” value in the series on 8305C cell line (8305C (PDGFR-α only), PDGF-BB 25 ng/mL) was “significant increase in invasive potential; also recorded: increased invasive potential”. In addition, the phospho-ERK entry in series [3] (8305C (BRAF mutation, MAPK/ERK constitutively activated), PDGF-BB) is listed as “small increase”. Also, in [3] (8305C, PDGF-BB 25 ng/ml), the “phospho-PDGFR-α/β, phospho-Akt, and phospho-ERK” value is listed as “strong up-regulation”. Besides, the “invasive potential on PDGF-BB stimulation” value in the series on TPC-1 cell line [4] (TPC-1 (PDGFR-α and -β), PDGF-BB 25 ng/mL) is given as “significant increase in invasive potential; also recorded: increased invasive potential”. In series [5] (setting [7]), the “phospho-Akt (PI3K/Akt pathway)” value was “significant increases”, the “phospho-ERK (MAPK/ERK pathway)” value is “small increase” and the phospho-PDGFR entry is “activated PDGFR-α”. Besides, the “invasive potential on PDGF-BB stimulation” value in the series with BCPAP cell line (BCPAP (PDGFR-β only), PDGF-BB 25 ng/mL) is on record as “did not exhibit any change in invasive potential”.
